Paper PMC10477861, “Efficient Mining of Anticancer Peptides from Gut Metagenome” (Advanced Science, 2023)
Where no end group is shown, it is not given here.

Assays:
[1] = test system: tumor-free mice; experiment: Acute toxicity in tumor-free mice; format: in vivo; conditions: for growth rate of body weight: after injection into the abdomen at 50 mg kg-1, gradually recovered over the next five days; for symptoms of illness or body weight loss, acute toxicity: injected into the abdomen at 2, 10 and 50 mg kg-1 over three days, up to 50 mg kg-1
Procedure: Furthermore, we investigated the safety of pACP2283 and pACP1780 both in vivo and in vitro. […] Additionally, we conducted an acute toxicity experiment in tumor‐free mice by administering pACPs with increasing concentrations into the abdomen. […] This temporary decrease in body weight growth rate may be attributed to the high concentrations of pACPs, which temporarily disturbed the mice's homeostasis.
To assess the toxicity of pACP1780 and pACP2283 at the cellular level, HEK293 cells were grown to 60% confluence in complete medium (10% FBS) for 24 h, and then treated with increasing concentrations (1.5, 3, 6, 12.5, 25, 50, and 100 µM) of each pACPs in maintenance medium (1% FBS) for 24 h. The viability of HEK293 cells was determined using the MTT Cell Proliferation and Cytotoxicity Assay Kit following the manufacturer's instructions. For acute toxicity in tumor‐free mice, the pACPs were injected into the abdomen at increasing concentrations of 2, 10, and 50 mg kg^−1 of mouse weight over three days, and the body weights were recorded throughout the process.

[2] = test system: CT26 cells; experiment: Propidium iodide (PI) assay of CT26 membrane damage; format: cell-based, Murine; conditions: pACP1780 6.23 µM, pACP2283 10.56 µM, 1, 2, 6, 12 h, PI 10 µg ml-1 45 min, ex/em 535/617 nm
Procedure: To explore the anticancer effects of pACP2283 and pACP1780 at the cellular level, we co‐cultured confluent CT26 cells with these pACPs.
Cell viability was assessed using propidium iodide (PI, ZS822‐1) according to the manufacturer's instructions. Briefly, CT26 cells were seeded in a 96‐well plate at a density of 1×10^4 cells per well. After 24 h, pACP1780 and pACP2283 were added to the wells at concentrations of 6.23 and 10.56 µM, respectively. The plate was then incubated for 1, 2, 6, and 12 h. Subsequently, the cells were cultured in medium containing 10 µg ml^−1 PI for 45 min. The fluorescence intensity was measured using a CytationTM 5 instrument (Bio Tek) with excitation/emission wavelengths of 535/617 nm.

[3] = test system: MDA-MB-231; experiment: MTT primary screening of anticancer activity, MDA-MB-231; format: cell-based; conditions: 25 µM pACP, 24 h, maintenance medium 1% FBS, ratio of viability to vehicle (PBS), at least three technical repetitions
Method in brief: (§1)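 Primary screen at one c[…]ntration, 25 µM final. Treatment lasted 24 h in medium with 1% FBS, starting at 60% confluence, followed by MTT viability measurement.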

[4] = test system: CT26 subcutaneous tumors; experiment: CT26 subcutaneous xenograft tumor model in nude mice; format: in vivo; set-up: Mean Diff, tumor volume growth, Control vs. peptide (Dunnett's multiple comparisons test): unit not given here; conditions: for tumor size compared to control-treated animals: CT26 subcutaneous tumors, athymic nude mice, two intratumoral injections (day 0, day 2), monitored six days, p <0.05; for tumor size compared to control-treated animals / signs of acute toxicity in tumor-bearing mice / survival of treated mice: 0.80 mg kg-1 pACP2283 or 0.51 mg kg-1 pACP1780; for Mean Diff, tumor volume growth, Control vs. peptide (Dunnett's multiple comparisons test): CT26 tumors in nude mice, intratumoral pACP1780 0.51 mg kg-1 or pACP2283 0.80 mg kg-1 on day 0 and day 2, six mice per group; for signs of acute toxicity in tumor-bearing mice / survival of treated mice: athymic nude mice with CT26 tumors, two intratumoral injections
Procedure: To evaluate the translational relevance of our methodology, we selected these two pACPs for in vivo studies. […] Subcutaneous tumors were established using CT26 cells in athymic nude mice, and the animals were randomized to receive two intratumoral injections of 0.80 mg kg^−1 pACP2283, 0.51 mg kg^−1 pACP1780, or PBS control on day 0 and day 2. The dosage of pACPs was calculated as five times the CC50 of each compound in CT26 cells. Tumor size was monitored daily for six days (Figure 3c).
Six‐week‐old female nude mice were obtained from Beijing HFK Bioscience Co., Ltd. and were acclimated to the laboratory environment for one‐week prior to the commencement of the experiments. All experimental procedures were conducted in a manner that minimized discomfort, distress, and pain to the animals. Mice were group‐housed, with a maximum of five animals per cage, under a light‐dark cycle of 12 h, with a constant temperature of 21–22°C and humidity of 55 ± 5%. They were provided with standard rodent chow and water ad libitum. The Ethics Committee of the Institute of Microbiology, Chinese Academy of Sciences approved all procedures (SQIMCAS2021005).
Murine colorectal carcinoma cell line CT26 was cultured in RPMI‐1640 medium supplemented with 10% fetal bovine serum and 1% penicillin/streptomycin at 37°C and 5% CO2. Tumor formation was induced by injecting was 5×106 ml^−1 CT26 cells into the right forelimb of each mouse. All mice were housed in the same environment with sufficient food and water. Throughout the study, the survival status and tumor progression of the mice on a daily basis were observed. The mice were randomly divided into three groups and received different treatments. CT26 cells were injected on […] for all groups. On Day 0, ACPs (pACP1780: 0.51 mg kg^−1 and pACP2283: 0.80 mg kg^−1) were intratumorally injected, while the Control group received an intratumoral injection of the same volume of PBS. On Day 2, the ACPs were intratumorally injected again, and the Control group received an injection of the same volume of PBS.

[5] = test system: MCF7; experiment: MTT primary screening of anticancer activity, MCF7; format: cell-based; conditions: 25 µM pACP, 24 h, maintenance medium 1% FBS, ratio of viability to vehicle (PBS), at least three technical repetitions
Method in brief: as §1

RRFAWIGKLQSRKVRNNIRQYRTKIVRQMRRQIFRQMKQKAE [pACP1780]
growth rate of body weight [1]: slight decrease
symptoms of illness or body weight loss, acute toxicity [1]: no significant symptoms of illness or body weight loss
PI fluorescence intensity (damaged cell membranes) [2]: significantly increased fluorescence intensity
Survival rate of cancer cells in primary screening [3]: 0.09
tumor size compared to control-treated animals [4]: significantly reduced tumor size
Mean Diff, tumor volume growth, Control vs. peptide (Dunnett's multiple comparisons test) ([4]; Day 0): 0
Mean Diff, tumor volume growth, Control vs. peptide (Dunnett's multiple comparisons test) ([4]; Day 1): 0.4906
Mean Diff, tumor volume growth, Control vs. peptide (Dunnett's multiple comparisons test) ([4]; Day 2): 0.7153
Mean Diff, tumor volume growth, Control vs. peptide (Dunnett's multiple comparisons test) ([4]; Day 3): 0.6812
Mean Diff, tumor volume growth, Control vs. peptide (Dunnett's multiple comparisons test) ([4]; Day 4): 1.652
Mean Diff, tumor volume growth, Control vs. peptide (Dunnett's multiple comparisons test) ([4]; Day 5): 2.41
signs of acute toxicity in tumor-bearing mice [4]: no overt signs of acute toxicity were observed
survival of treated mice [4]: all mice survived
Survival rate of cancer cells in primary screening [5]: 0.0113

WWRRAERSVRRFFGTPIGPFPEIFGRRKAHKKKIIAKFDSVNG [pACP2283]
growth rate of body weight [1]: slight decrease
symptoms of illness or body weight loss, acute toxicity [1]: no significant symptoms of illness or body weight loss
PI fluorescence intensity (damaged cell membranes) [2]: significantly increased fluorescence intensity
Survival rate of cancer cells in primary screening [3]: 0.06
tumor size compared to control-treated animals [4]: significantly reduced tumor size
Mean Diff, tumor volume growth, Control vs. peptide (Dunnett's multiple comparisons test) ([4]; Day 0): 0
Mean Diff, tumor volume growth, Control vs. peptide (Dunnett's multiple comparisons test) ([4]; Day 1): 0.7285
Mean Diff, tumor volume growth, Control vs. peptide (Dunnett's multiple comparisons test) ([4]; Day 2): 1.385
Mean Diff, tumor volume growth, Control vs. peptide (Dunnett's multiple comparisons test) ([4]; Day 3): 1.698
Mean Diff, tumor volume growth, Control vs. peptide (Dunnett's multiple comparisons test) ([4]; Day 4): 2.95
Mean Diff, tumor volume growth, Control vs. peptide (Dunnett's multiple comparisons test) ([4]; Day 5): 3.362
signs of acute toxicity in tumor-bearing mice [4]: no overt signs of acute toxicity were observed
survival of treated mice [4]: all mice survived
Survival rate of cancer cells in primary screening [5]: 0.0549
